Experimental data taken from US12569452B2, “Ophthalmic compositions comprising F6H8” (NOVALIQ GMBH, priority 2017, dated 2026).

Legend:
[1] = Ocular tissue distribution after single topical ocular dose of 14C-F6H8, liquid scintillation counting; type: in vivo, Dutch Belted (pigmented) female rabbits; conditions: for Mean concentration of radioactivity, Conjunctiva (bulbar) / Mean concentration of radioactivity, Conjunctiva (palpebral) / Mean concentration of radioactivity, Cornea / Mean concentration of radioactivity, Lacrimal gland (accessory) / Mean concentration of radioactivity, Lacrimal gland (main) / Mean concentration of radioactivity, Meibomian glands / Mean concentration of radioactivity, Sclera (anterior) / Mean concentration of radioactivity, Tears: single topical ocular dose
Experimental: The study is conducted to assess the ocular tissue distribution after topical ocular administration of ^14C-1-Perfluorohexyloctane (F6H8, NovaTears®) to Dutch Belted (pigmented) female rabbits.
On the first day of dosing, 5.474 mL of ^14C—F6H8 is combined with 9.526 mL of F6H8. The dose formulation is magnetically stirred and appears to be a colorless solution. The dose formulation is separated into vials to provide one vial per day for dose administration and it is stored at approximately −20° C. One vial per day is thawed prior to dose administration. In between dose administrations, the vial is capped and stored at approximately 5° C. when not in use.
Animals are not fasted prior to dose administration. All animals receive single 35 μL-drops of the dose formulation in each eye, with the right eye dosed first. All collection times are based on the time of dosing of the second (left) eye for the last dose, as applicable.
After the dose is administered, the eye is allowed to close naturally. Each animal is then restrained for approximately 1 minute to prevent rubbing of the eyes.
Tears and Ocular Tissue Collection: Tears are collected from two animals per group per time point at 0.25, 0.5, 1, 2, 4, 8, and 24 hours post-dose following the single dose or the last dose of the multiple dose scheme. Tears are collected using Tear Flo Test (TFT) strips that were dye free. One strip of paper is used for each eye for each time point. Following collection, the tube containing the strip is placed on dry ice or stored at approximately −70° C. until analysed.
At the time of sacrifice, both eyes are enucleated and ocular tissues including Aqueous humour, Conjunctiva (bulbar), Conjunctiva (palpebral), Lacrimal gland (accessory), Lacrimal gland (main), Meibomian glands (tarsal plate), Choroid-Retinal pigmented epithelium (Choroid-RPE), Cornea, Iris-ciliary body (ICB), Retina, Sclera (anterior), Sclera (posterior), Vitreous humour are collected.
Radioanalysis: All samples are analyzed for radioactivity in a Model 2900TR liquid scintillation counter (Packard Instrument Company) for at least 5 minutes or 100,000 counts, utilizing Ultima Gold XR or Hionic Fluor scintillation cocktails (Perkin Elmer). Each sample is homogenized before radioanalysis, unless the entire sample is used for analysis. All samples are analyzed in duplicate if sample size allows.
For Conjunctiva (bulbar and palpebral), Cornea, Lacrimal gland (main), Meibomian glands, Retina, and Sclera (anterior and posterior), each sample is digested in 2M sodium hydroxide in ethanol (80:20, v:v) and maintained at room temperature or in an oven set no higher than 30° C. until dissolved. Scintillation cocktail is added, and the samples are shaken and analyzed directly by LSC.
For Lacrimal gland (accessory), each sample is digested in 2M sodium hydroxide in ethanol (80:20, v:v) and maintained at room temperature or in an oven set no higher than 30° C. until dissolved. The sample is homogenized by mixing and duplicate weighed aliquots are analyzed directly by LSC.
For Tears, at least 10 mL of Ultima Gold XR scintillation cocktail is added, and the samples are shaken and analyzed by LSC.
Single topical ocular administration, radioanalysis of ocular tissues: The rabbits received a single topical ocular administration in both eyes. The target dose level is 45.6 mg/eye (25 μCi/eye). Following the single topical ocular dose of 35 μl of ^14C—F6H8, two animals per time point are sacrificed at 0.25, 0.5, 1, 2, 4, 8, and 24 hours post-dose in a sparse sampling profile. Ocular tissues (including tears collected prior to sacrifice) are collected from all animals at sacrifice.

[2] = Quantitative autoradiography of whole head after single topical ocular dose of 14C-F6H8; type: in vivo, female Dutch Belted rabbits; conditions: single dose 35 μl
Text: Quantitative Autoradiography: Animals are euthanized with sodium pentobarbital and blood is collected via cardiac puncture. Immediately after blood collection, the animals were frozen for quantitative autoradiography. The frozen heads are embedded in chilled carboxymethyl cellulose and frozen into blocks. Appropriate sections are collected on adhesive tape at […], in a Leica CM 3600 cryomicrotome. Mounted sections are exposed for 4 days on phosphor imaging screens along with fortified blood standards for subsequent calibration of the image analysis software and subsequently scanned using a Typhoon scanner. The autoradiographic standard image data are sampled using InterFocus Imaging Ltd. MCID™ Analysis software to create a calibrated standard curve. Specified tissues and fluids are analysed. Tissue concentrations are interpolated from each standard curve as nanocuries/g and then converted to ng equivalents/g on the basis of the test article specific activity.
The highest concentrations (>10000 ng equivalents ^14C—F6H8/g) are found in the anterior tissues in the order eyelid margin (443000)>internal eyelid (171000)>cornea (33500). Other tissues with high concentrations are the external eyelid skin, nasolacrimal duct, and nasal turbinates.

[3] = single dose, between 0.25 and 4 hours post-dose

Radioactivity in the iris-ciliary body and choroid-RPE ([1]; single dose): No radioactivity is detected
Radioactivity in the vitreous humour and retina ([1]; single dose): Low levels
Highest mean concentration, Meibomian glands [1, 3]: 294000 ng equivalents ^14C—F6H8/g
Highest mean concentration, accessory lacrimal gland [1, 3]: 4280 ng equivalents ^14C—F6H8/g
Highest mean concentration, anterior sclera [1, 3]: 2270 ng equivalents ^14C—F6H8/g
Highest mean concentration, bulbar conjunctiva [1, 3]: 5450 ng equivalents ^14C—F6H8/g
Highest mean concentration, cornea [1, 3]: 8230 ng equivalents ^14C—F6H8/g
Highest mean concentration, main lacrimal gland [1, 3]: 4130 ng equivalents ^14C—F6H8/g
Highest mean concentration, palpebral conjunctiva [1, 3]: 14200 ng equivalents ^14C—F6H8/g
Highest mean concentration, tears [1, 3]: 2390000 ng equivalents ^14C—F6H8/g
Mean concentration of radioactivity, Conjunctiva (bulbar) ([1]; 0.25 h post-dose): 5450 ng Equivalents ^14C-F6H8/g
Mean concentration of radioactivity, Conjunctiva (palpebral) ([1]; 0.25 h post-dose): 14200 ng Equivalents ^14C-F6H8/g
Mean concentration of radioactivity, Cornea ([1]; 0.25 h post-dose): 2040 ng Equivalents ^14C-F6H8/g
Mean concentration of radioactivity, Lacrimal gland (accessory) ([1]; 0.25 h post-dose): 577 ng Equivalents ^14C-F6H8/g
Mean concentration of radioactivity, Lacrimal gland (main) ([1]; 0.25 h post-dose): 1670 ng Equivalents ^14C-F6H8/g
Mean concentration of radioactivity, Meibomian glands ([1]; 0.25 h post-dose): 294000 ng Equivalents ^14C-F6H8/g
Mean concentration of radioactivity, Sclera (anterior) ([1]; 0.25 h post-dose): 1140 ng Equivalents ^14C-F6H8/g
Mean concentration of radioactivity, Tears ([1]; 0.25 h post-dose): 2390000 ng Equivalents ^14C-F6H8/g
Mean concentration of radioactivity, Conjunctiva (bulbar) ([1]; 0.5 h post-dose): 3680 ng Equivalents ^14C-F6H8/g
Mean concentration of radioactivity, Conjunctiva (palpebral) ([1]; 0.5 h post-dose): 5180 ng Equivalents ^14C-F6H8/g
Mean concentration of radioactivity, Cornea ([1]; 0.5 h post-dose): 8230 ng Equivalents ^14C-F6H8/g
Mean concentration of radioactivity, Lacrimal gland (accessory) ([1]; 0.5 h post-dose): 0.00 ng Equivalents ^14C-F6H8/g
Mean concentration of radioactivity, Lacrimal gland (main) ([1]; 0.5 h post-dose): 2770 ng Equivalents ^14C-F6H8/g
Mean concentration of radioactivity, Meibomian glands ([1]; 0.5 h post-dose): 102000 ng Equivalents ^14C-F6H8/g
Mean concentration of radioactivity, Sclera (anterior) ([1]; 0.5 h post-dose): 2270 ng Equivalents ^14C-F6H8/g
Mean concentration of radioactivity, Tears ([1]; 0.5 h post-dose): 995000 ng Equivalents ^14C-F6H8/g
Mean concentration of radioactivity, Conjunctiva (bulbar) ([1]; 1 h post-dose): 3320 ng Equivalents ^14C-F6H8/g
Mean concentration of radioactivity, Conjunctiva (palpebral) ([1]; 1 h post-dose): 5700 ng Equivalents ^14C-F6H8/g
Mean concentration of radioactivity, Cornea ([1]; 1 h post-dose): 6110 ng Equivalents ^14C-F6H8/g
Mean concentration of radioactivity, Lacrimal gland (accessory) ([1]; 1 h post-dose): 255 ng Equivalents ^14C-F6H8/g
Mean concentration of radioactivity, Lacrimal gland (main) ([1]; 1 h post-dose): 641 ng Equivalents ^14C-F6H8/g
Mean concentration of radioactivity, Meibomian glands ([1]; 1 h post-dose): 57600 ng Equivalents ^14C-F6H8/g
Mean concentration of radioactivity, Sclera (anterior) ([1]; 1 h post-dose): 1300 ng Equivalents ^14C-F6H8/g
Mean concentration of radioactivity, Tears ([1]; 1 h post-dose): 444000 ng Equivalents ^14C-F6H8/g
Mean concentration of radioactivity, Conjunctiva (bulbar) ([1]; 2 h post-dose): 3050 ng Equivalents ^14C-F6H8/g
Mean concentration of radioactivity, Conjunctiva (palpebral) ([1]; 2 h post-dose): 4230 ng Equivalents ^14C-F6H8/g
Mean concentration of radioactivity, Cornea ([1]; 2 h post-dose): 3230 ng Equivalents ^14C-F6H8/g
Mean concentration of radioactivity, Lacrimal gland (accessory) ([1]; 2 h post-dose): 1450 ng Equivalents ^14C-F6H8/g
Mean concentration of radioactivity, Lacrimal gland (main) ([1]; 2 h post-dose): 1530 ng Equivalents ^14C-F6H8/g
Mean concentration of radioactivity, Meibomian glands ([1]; 2 h post-dose): 69200 ng Equivalents ^14C-F6H8/g
Mean concentration of radioactivity, Sclera (anterior) ([1]; 2 h post-dose): 767 ng Equivalents ^14C-F6H8/g
Mean concentration of radioactivity, Tears ([1]; 2 h post-dose): 700000 ng Equivalents ^14C-F6H8/g
Mean concentration of radioactivity, Conjunctiva (bulbar) ([1]; 4 h post-dose): 1610 ng Equivalents ^14C-F6H8/g
Mean concentration of radioactivity, Conjunctiva (palpebral) ([1]; 4 h post-dose): 2500 ng Equivalents ^14C-F6H8/g
Mean concentration of radioactivity, Cornea ([1]; 4 h post-dose): 4480 ng Equivalents ^14C-F6H8/g
Mean concentration of radioactivity, Lacrimal gland (accessory) ([1]; 4 h post-dose): 4280 ng Equivalents ^14C-F6H8/g
Mean concentration of radioactivity, Lacrimal gland (main) ([1]; 4 h post-dose): 4130 ng Equivalents ^14C-F6H8/g
Mean concentration of radioactivity, Meibomian glands ([1]; 4 h post-dose): 29100 ng Equivalents ^14C-F6H8/g
Mean concentration of radioactivity, Sclera (anterior) ([1]; 4 h post-dose): 1170 ng Equivalents ^14C-F6H8/g
Mean concentration of radioactivity, Tears ([1]; 4 h post-dose): 207000 ng Equivalents ^14C-F6H8/g
Mean concentration of radioactivity, Conjunctiva (bulbar) ([1]; 8 h post-dose): 1340 ng Equivalents ^14C-F6H8/g
Mean concentration of radioactivity, Conjunctiva (palpebral) ([1]; 8 h post-dose): 1790 ng Equivalents ^14C-F6H8/g
Mean concentration of radioactivity, Cornea ([1]; 8 h post-dose): 6080 ng Equivalents ^14C-F6H8/g
Mean concentration of radioactivity, Lacrimal gland (accessory) ([1]; 8 h post-dose): 2110 ng Equivalents ^14C-F6H8/g
Mean concentration of radioactivity, Lacrimal gland (main) ([1]; 8 h post-dose): 2120 ng Equivalents ^14C-F6H8/g
Mean concentration of radioactivity, Meibomian glands ([1]; 8 h post-dose): 21100 ng Equivalents ^14C-F6H8/g
Mean concentration of radioactivity, Sclera (anterior) ([1]; 8 h post-dose): 1330 ng Equivalents ^14C-F6H8/g
Mean concentration of radioactivity, Tears ([1]; 8 h post-dose): 6660 ng Equivalents ^14C-F6H8/g
Mean concentration of radioactivity, Conjunctiva (bulbar) ([1]; 24 h post-dose): 1090 ng Equivalents ^14C-F6H8/g
Mean concentration of radioactivity, Conjunctiva (palpebral) ([1]; 24 h post-dose): 2270 ng Equivalents ^14C-F6H8/g
Mean concentration of radioactivity, Cornea ([1]; 24 h post-dose): 2730 ng Equivalents ^14C-F6H8/g
Mean concentration of radioactivity, Lacrimal gland (accessory) ([1]; 24 h post-dose): 1500 ng Equivalents ^14C-F6H8/g
Mean concentration of radioactivity, Lacrimal gland (main) ([1]; 24 h post-dose): 1810 ng Equivalents ^14C-F6H8/g
Mean concentration of radioactivity, Meibomian glands ([1]; 24 h post-dose): 14700 ng Equivalents ^14C-F6H8/g
Mean concentration of radioactivity, Sclera (anterior) ([1]; 24 h post-dose): 611 ng Equivalents ^14C-F6H8/g
Mean concentration of radioactivity, Tears ([1]; 24 h post-dose): 1300 ng Equivalents ^14C-F6H8/g
Highest concentration, cornea [2]: 33500 ng equivalents ^14C—F6H8/g
Highest concentration, eyelid margin [2]: 443000 ng equivalents ^14C—F6H8/g
Highest concentration, internal eyelid [2]: 171000 ng equivalents ^14C—F6H8/g
Substance: ^14C-1-Perfluorohexyloctane [^14C-F6H8]
